{"source": "paper PMC10781839", "about": "(European Journal of Drug Metabolism and Pharmacokinetics, 2023)", "key": {"CYP3A": {"system": "CYP3A", "conditions": "for Midazolam/1-OH-midazolam AUC2–4 h ratio: pantoprazole group"}, "CYP2D6 [1]": {"system": "CYP2D6", "conditions": "single 400 mg HCQ, short term, yohimbine probe"}, "CYP2D6 [2]": {"system": "CYP2D6", "conditions": "cited from earlier work"}, "[3]": {"conditions": "cited from earlier work"}, "CYP3A4": {"system": "CYP3A4", "conditions": "cited from earlier work; for CYP3A4 inhibition in vitro: HCQ metabolites"}, "CYP2D6 [4]": {"system": "CYP2D6", "conditions": "cited from earlier work", "remark": "listed apart in the source"}, "[5]": {"conditions": "cited from earlier work", "remark": "listed apart in the source"}, "recombinant human CYP3A4": {"molecular_target": "recombinant human CYP3A4 (Homo sapiens, UniProt P08684)", "sequence (P08684 whole entry)": "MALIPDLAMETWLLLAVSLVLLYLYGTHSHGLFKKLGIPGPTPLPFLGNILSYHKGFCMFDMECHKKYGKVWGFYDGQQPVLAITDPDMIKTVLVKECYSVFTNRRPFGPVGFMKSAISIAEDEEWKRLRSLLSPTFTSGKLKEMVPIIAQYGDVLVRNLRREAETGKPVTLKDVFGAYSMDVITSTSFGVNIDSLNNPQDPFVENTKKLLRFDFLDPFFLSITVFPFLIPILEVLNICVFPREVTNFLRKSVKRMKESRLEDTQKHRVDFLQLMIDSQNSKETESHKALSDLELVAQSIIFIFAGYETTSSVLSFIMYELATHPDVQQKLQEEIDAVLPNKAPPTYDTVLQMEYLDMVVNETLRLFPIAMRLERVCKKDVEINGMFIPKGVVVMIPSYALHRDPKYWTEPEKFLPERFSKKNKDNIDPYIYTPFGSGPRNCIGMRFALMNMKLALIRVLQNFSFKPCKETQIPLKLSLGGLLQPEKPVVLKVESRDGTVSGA", "assay": "P450-Glo CYP3A4 Assay, inhibition by pantoprazole", "format": "in vitro ADME", "conditions": "pantoprazole 100 µM, in vitro"}, "[6]": {"conditions": "cited from earlier work; for Peak serum concentration: pantoprazole 40 mg"}, "[7]": {"conditions": "all participants, after HCQ intake (± pantoprazole)"}, "[8]": {"conditions": "pantoprazole subgroup, HCQ plus pantoprazole"}, "[9]": {"conditions": "after 8-day course of 400 mg HCQ twice daily, seven healthy volunteers"}}, "note": "“Also recorded” adds a separate entry of the source. Read-outs that look alike come from different tables or passages of the source."}
{"molecule": "OCc1ncc2n1-c1ccc(Cl)cc1C(c1ccccc1F)=NC2", "note": "[1-OH-midazolam, 1-hydroxy-midazolam]", "values": [{"measurement": "Increase of 1-OH-midazolam AUC2–4 h vs baseline", "setting": "CYP3A; [7]", "value": 17, "unit": "%"}, {"measurement": "Increase of 1-OH-midazolam AUC2–4 h vs baseline", "setting": "CYP3A; [8]", "value": 17.5, "unit": "%"}]}
{"molecule": "CCN(CCO)CCCC(C)Nc1ccnc2cc(Cl)ccc12", "note": "(stereo not shown) [HCQ, hydroxychloroquine]", "values": [{"measurement": "Inhibition of CYP2D6 metabolism in vivo", "setting": "CYP2D6 [1]", "value": "not a clinically relevant CYP2D6 inhibitor; also recorded: did not inhibit"}, {"measurement": "CYP2D6 inhibition in healthy volunteers", "setting": "CYP2D6 [2]; interaction with metoprolol and dextromethorphan", "value": "weakly inhibits CYP2D6"}, {"measurement": "Time until steady state is reached", "setting": "[3]", "value": 4, "unit": "months"}, {"measurement": "CYP3A4 inhibition in vitro by parent drug", "setting": "CYP3A4", "value": "did not support the hypothesis that the parent drug HCQ inhibits CYP3A4 activity"}, {"measurement": "CYP2D6 inhibition in vitro", "setting": "CYP2D6 [4]", "value": "competitively and reversibly inhibit CYP2D6 activity, albeit only mildly"}, {"measurement": "Inhibition of CYP3A metabolism in vivo", "setting": "CYP3A; single 400 mg HCQ, short term, midazolam probe", "value": "did not inhibit"}]}
{"molecule": "CCNCCCC(C)Nc1ccnc2cc(Cl)ccc12", "note": "(stereo not shown) [desethylchloroquine]", "values": [{"measurement": "CYP3A4 inhibition in vitro", "setting": "CYP3A4", "value": "time-dependent inhibitors of CYP3A4"}, {"measurement": "CYP2D6 inhibition in vitro", "setting": "CYP2D6 [4]", "value": "competitively and reversibly inhibit CYP2D6 activity, albeit only mildly"}]}
{"molecule": "CC(CCCNCCO)Nc1ccnc2cc(Cl)ccc12", "note": "(stereo not shown) [desethylhydroxychloroquine]", "values": [{"measurement": "CYP3A4 inhibition in vitro", "setting": "CYP3A4", "value": "time-dependent inhibitors of CYP3A4"}]}
{"molecule": "COc1ccc2c(c1)[C@]13CCCC[C@@H]1[C@H](C2)N(C)CC3", "note": "[dextromethorphan]", "values": [{"measurement": "Change of urinary metabolic ratio of dextromethorphan", "setting": "CYP2D6 [2]; after 8-day course of 400 mg HCQ twice daily", "value": "did not show any significant change"}]}
{"molecule": "CC(CCCN)Nc1ccnc2cc(Cl)ccc12", "note": "(stereo not shown) [didesethylchloroquine]", "values": [{"measurement": "CYP3A4 inhibition in vitro", "setting": "CYP3A4", "value": "time-dependent inhibitors of CYP3A4"}]}
{"molecule": "COCCc1ccc(OCC(O)CNC(C)C)cc1", "note": "(stereo not shown) [metoprolol]", "values": [{"measurement": "Increase of metoprolol AUC", "setting": "CYP2D6 [2]; [9]", "value": 65, "unit": "%"}, {"measurement": "Increase of metoprolol Cmax", "setting": "CYP2D6 [2]; [9]", "value": 72, "unit": "%"}]}
{"molecule": "Cc1ncc2n1-c1ccc(Cl)cc1C(c1ccccc1F)=NC2", "note": "[midazolam]", "values": [{"measurement": "Delay of peak plasma concentration vs fasting state", "setting": "[5]; oral standard dose 1 h after a meal", "value": 0.9, "unit": "h"}, {"measurement": "Oral bioavailability", "setting": "[5]; therapeutic or microdoses", "value": "approximately 25%"}, {"measurement": "Increase of midazolam AUC2–4 h vs baseline", "setting": "CYP3A; [7]", "value": 25, "unit": "%"}, {"measurement": "Change of midazolam AUC2–4 h vs baseline", "setting": "CYP3A; control subgroup, HCQ alone", "value": "no change"}, {"measurement": "Midazolam/1-OH-midazolam AUC2–4 h ratio", "setting": "CYP3A; after hydroxychloroquine plus pantoprazole", "value": "3.60 ± 1.56"}, {"measurement": "Midazolam/1-OH-midazolam AUC2–4 h ratio", "setting": "CYP3A; baseline", "value": "3.03 ± 1.59"}, {"measurement": "Increase of midazolam AUC2–4 h vs baseline", "setting": "CYP3A; [8]", "value": 46, "unit": "%"}]}
{"molecule": "COc1ccnc(C[S+]([O-])c2nc3ccc(OC(F)F)cc3[nH]2)c1OC", "note": "(stereo not shown) [pantoprazole]", "values": [{"measurement": "Reduction of CYP3A activity", "setting": "recombinant human CYP3A4", "value": 75, "unit": "%"}, {"measurement": "Time to peak concentrations after oral administration", "setting": "[6]", "value": "2 to 3", "unit": "h"}, {"measurement": "Peak serum concentration", "setting": "[6]; converted from µg/ml", "value": 6.5, "unit": "µM"}, {"measurement": "Peak serum concentration", "setting": "[6]", "value": 2.5, "unit": "µg/mL"}, {"measurement": "Inhibition of CYP3A4-mediated midazolam metabolism in vitro", "setting": "CYP3A4", "value": "inhibits CYP3A4-mediated midazolam metabolism at relatively high concentrations"}, {"measurement": "Local concentration in the gut", "setting": "CYP3A; 40 mg pantoprazole with approximately 200 ml of fluid, estimate", "value": "exceeded 500 µM"}]}
